Key:
Format in all cases: in vivo
[1] = test system: Arabidopsis thaliana (Col-O); test: Seed yield of Arabidopsis thaliana at different compound concentrations (Examples 2 to 4); conditions: for Seed yield Ratio: 85th day, Comparative Example 6 (distilled water) set to 1; for Seed yield: harvested on 85th day after seeding, 22° C.
Protocol: One individual Arabidopsis thaliana (Col-O) was sown in a plastic pot having a diameter of 60 mm and a height of 55 mm. Plastic deep dishes each having a diameter of 160 mm and a height of 28 mm were prepared, and six pots were respectively placed therein. As soil, 45 mL of vermiculite, 22.5 mL of granular soil (JA Granular Kumiai Synthetic Soil No. 3), and 22.5 mL of vermiculite were placed in each pot in this order.
The procedure was the same as in Example 1, except that the room temperature was set to 22° C.
On the 85th day after seeding, seeds were harvested, and the seed yield (mg/plant) was measured.
The same operation as in Example 2 was carried out except that the concentration of L-(+)-ergothioneine aqueous solution was set to 0.1 mM.
The same operation as in Example 2 was carried out except that the concentration of L-(+)-ergothioneine aqueous solution was set to 0.01 mM. […]
The same operation as in Example 2 was carried out except that the L-(+)-ergothioneine aqueous solution was replaced with distilled water.
(§1) The ratio of “grass height” and “flowers and fruits” for Example 1, Comparative Example 1, and Comparative Example 2 to the results of Comparative Example 2 are shown in Table 1 as “Ratio”, respectively. The “seed yield” for Examples 2 to 4 and Comparative Examples 3 to 6 are shown as “Ratio” in Table 2, where the value for Comparative Example 6 is set to 1. The “seed yield” for Examples 5 and 6 and Comparative Examples 7 and 8 are shown as “Ratio” in Table 3, where the value for Comparative Example 8 is set to 1.

[2] = test system: Arabidopsis thaliana (Col-O); test: Seed yield of Arabidopsis thaliana at different times of treatment (Examples 5 and 6); conditions: 1 mM; for Seed yield: harvested on 82nd day, 22° C.; for Seed yield Ratio: 82nd day, Comparative Example 8 (distilled water) set to 1
Protocol: The same operation as in Example 2 was carried out.
The same operation as in Example 1 was carried out except that the room temperature was set at 22° C. and L-(+)-ergothioneine was added 2 weeks after seeding, more specifically on the 8th, 10th, 12th, and 14th days.
On the 82nd day after seeding, seeds were harvested, and the seed yield (mg/plant) was measured.
The same operation as in Example 5 was carried out except that L-(+)-ergothioneine was added 4 weeks after seeding, more specifically on the 22nd, 24th, 26th, and 28th days.
The same operation as in Example 5 was carried out except that oxidized glutathione was used in place of L-(+)-ergothioneine in the aqueous solution and added 4 weeks after seeding, more specifically on the 22nd, 24th, 26th, and 28th days.
The same operation as in Example 5 was carried out except that the L-(+)-ergothioneine aqueous solution was replaced with distilled water.
as §1

[3] = test system: Arabidopsis thaliana (Col-O); test: Plant height and number of flowers and fruits of Arabidopsis thaliana after treatment via water supply (Example 1); conditions: for Flower and Fruit Ratio / Plant height Ratio: 1 mM, 37th day after seeding, ratio to Comparative Example 2 (distilled water); for Flower and Fruit / Plant height: 50 mL of 1 mM aqueous solution on 21st, 23rd, 25th, 27th days after seeding, measured on 37th day, 25° C.
Protocol: Arabidopsis thaliana (Col-O) was sown in plastic pots having a width of 65 mm, a depth of 65 mm, and a height of 70 mm, three individuals per pot. Plastic deep dishes each having a diameter of 160 mm and a height of 28 mm were prepared, and three pots were respectively placed therein. As soil, 100 mL of vermiculite, 50 mL of granular soil (JA Granular Kumiai Synthetic Soil No. 3), and 50 mL of vermiculite were placed in each pot in this order.
In a thermostatic chamber set at room temperature of 25° C., the light period was 16 hours and the dark period was 8 hours. The light conditions were set using a fluorescent lamp (PLANT FLEC, 40 W LED fluorescent lamp for plant growth, electric bulb color, available from Nippon Medical and Chemical Instruments Co., Ltd.) so that the light intensity was 5000 lx in the central part under the fluorescent lamp irradiation. Water supply was done from the bottom, and the water level was set at about 5 mm. Ergothioneine treatment was started 4 weeks after seeding. More specifically, on the 21st, 23rd, 25th, and 27th days after seeding, 50 mL of a 1 mM L-(+)-ergothioneine (available from Cayman Chemical) aqueous solution was added instead of water supply.
On the 37th day after seeding, the plant height (cm) and the number of flowers and fruits per Arabidopsis thalianawere measured.
The same operation as in Example 1 was carried out except that L-(+)-ergothioneine in the aqueous solution was replaced with oxidized glutathione (available from Wako Pure Chemical Industries, Ltd.).
The same operation as in Example 1 was carried out except that the L-(+)-ergothioneine aqueous solution was replaced with distilled water.
as §1

[4] = time of treatment 4 weeks after seeding (22nd, 24th, 26th, 28th days)
[5] = time of treatment 4 weeks after seeding

For `N[C@@H](CCC(=O)O)C(=O)O` [L-glutamic acid, reference compound], the “Seed yield Ratio” value ([1]; compound concentration 1 mM) was 1.0 and the Seed yield ([1]; compound concentration 1 mM) was 90 mg/plant.
`C[N+](C)(C)[C@@H](Cc1c[nH]c(=S)[nH]1)C(=O)[O-]` [L-(+)-ergothioneine] was tested, and the Seed yield ([2]; time of treatment 2 weeks after seeding (8th, 10th, 12th, 14th days)) was 140 mg/plant, the “Seed yield Ratio” value ([2]; time of treatment 2 weeks after seeding) was 2.0 and the Seed yield [2, 4] was 114 mg/plant. The “Seed yield Ratio” value [2, 5] was 1.7, the “Seed yield Ratio” value ([1]; compound concentration 0.01 mM) was 1.3 and the Seed yield ([1]; compound concentration 0.01 mM) was 109 mg/plant. For the same molecule, the “Seed yield Ratio” value ([1]; compound concentration 0.1 mM) was 1.5, the Seed yield ([1]; compound concentration 0.1 mM) was 130 mg/plant and the “Seed yield Ratio” value ([1]; compound concentration 1 mM) was 1.7. For the same molecule, the Seed yield ([1]; compound concentration 1 mM) was 142 mg/plant, the “Flower and Fruit Ratio” value [3] was 1.7 and the “Plant height Ratio” value [3] was 1.3. The “Flower and Fruit” value [3] was 26 Number/plant and the Plant height [3] was 29 cm.
In the case of “oxidized glutathione [reference compound]”, the Seed yield [2, 4] is reported as 92 mg/plant, the “Seed yield Ratio” value [2, 5] is reported as 1.3 and the “Seed yield Ratio” value ([1]; compound concentration 1 mM) is reported as 1.2. For the same molecule, the Seed yield ([1]; compound concentration 1 mM) was 100 mg/plant, the “Flower and Fruit Ratio” value [3] was 1.5 and the “Plant height Ratio” value [3] was 1.1. The “Flower and Fruit” value [3] was 22 Number/plant and the Plant height [3] was 24 cm.
`O=C(O)[C@@H]1CCCN1` [L-proline, reference compound] was tested, and the “Seed yield Ratio” value ([1]; compound concentration 1 mM) was 1.2 and the Seed yield ([1]; compound concentration 1 mM) was 102 mg/plant.

From US20220281822A1, “PLANT GROWTH REGULATOR AND METHOD FOR PROMOTING PLANT GROWTH” (Kureha Corporation, priority 2019, published 2022)
